Measured values reported in BigSolDB 2.1.

CN[C@@H]1[C@H](O)[C@H](NC)[C@H]2O[C@@]3(O)C(=O)C[C@@H](C)O[C@H]3O[C@@H]2[C@H]1O.Cl.Cl.O.O.O.O.O
solubility (mole fraction)
Details	278.15 K	283.15 K	288.15 K	293.15 K	298.15 K	303.15 K	308.15 K	313.15 K	318.15 K
in ethanol	0.00342	0.00412	0.00443	0.00484	0.00545	0.00629	0.00664	0.00738	0.00807
in isopropanol	0.00031	0.0004	0.00051	0.00066	0.00074	0.00086	0.00101	0.00114	0.00131
in methanol	0.00988	0.0138	0.0185	0.0226	0.032	0.0385	0.0439	0.0531	0.0629
in n-propanol	0.00098	0.00125	0.00157	0.00219	0.0027	0.00336	0.00373	0.00447	0.00531
